Values of other authors, collected in patent publication US20120142631A1, “MEDICINAL ANTIDIAPER RASH CREAM INCORPORATING A BIOPOLYMER AND A PROCESS TO MAKE IT” (APEX LABORATORIES PRIVATE LIMITED, priority 2009, published 2012).
Where two headings read alike, the source gives them in different places.

Row | Solubility (acetone) | Solubility (ethanol) | Structure (SMILES) | Solubility / miscibility (ethanol (95%)) | Solubility / miscibility (water) | Solubility (chloroform) | Solubility (ether)
1 | readily soluble | readily soluble | CCCCCCCCCCCCC[N+](C)(C)Cc1ccccc1.[Cl-] [Benzalkonium chloride, benzyl-dimethyl-tridecyl-azanium chloride] | miscible | miscible |  | 
2 |  |  | CCCCCCCCCCCCCC[N+](C)(C)C.[Br-] [Cetrimide, tetradecyltrimethylammonium bromide] | freely soluble | freely soluble | freely soluble | practically insoluble
